The term mortality denotes the share of the test organisms that died.

SMILES strings stand for the structures. Like-named read-outs stand apart in the source and are kept apart here.

The results in this text go back to patent EP4741380A1, “ISOXAZOLINE COMPOUND AND USE” (priority 2024, dated 2025).

The data set has as its system mites. Briefly: Mite killing efficacy test with an in vitro model. As to conditions: 30 µM drug solution. The method, then: Mite collection: Live mites were gently picked up from a cage box with cotton swabs or small tweezers, 17-26 live mites per group.
Drug treatment and detection method: 100 µL of a drug solution with a different concentration (drug solution prepared by 3% DMSO solution + 97% water and having a target final concentration of 30 µM) was aspirated with a pipette and added to a 24-well plate for each group, ensuring full contact between the drug and the mites. The mites were separately incubated at normal temperature for 5 min, transferred from each plate to another dry 24-well plate with the top sealed, and air-dried for about 1 h. Mite actions were observed, and the number of dead mites/the total number of mites was recorded. Then, the 24-well plate containing the mites was cultured at room temperature and relatively high humidity. The number of dead mites/the total number of mites was counted separately after 1 h, 2 h, 4 h, 6 h, 8 h, 22 h, and 24 h (time points after drug addition), and mite mortality rates were calculated. The project ended 24 h after drug addition.
At a corresponding time point, a mite mortality rate greater than or equal to 90% is denoted as "+++", a mite mortality rate less than 90% and greater than or equal to 50% is denoted as "++", and a mite mortality rate less than 50% is denoted as "+".

Setting [1] is: 4 h after drug addition, read-out: Mite Mortality Rate 4 h.
Where [2] appears, read: 24 h after drug addition, read-out: Mite Mortality Rate 24 h.

As for `Cc1cc(C2=NOC(c3cc(Cl)cc(C(F)(F)F)c3)(C(F)(F)F)C2)ccc1C(=O)NCC(=O)NC1(C(F)(F)F)CC1` (racemic) [Example 007, 4-(5-(3-chloro-5-(trifluoromethyl)phenyl)-5-(trifluoromethyl)-4,5-dihydroisoxazol-3-yl)-2-methy 1-N-(2-oxo-2-((1-(trifluoromethyl)cyclopropyl)amino)ethyl)benzamide], the “Mite Mortality Rate 4 h” value (4 h after drug addition) was “++ (a mite mortality rate less than 90% and greater than or equal to 50% is denoted as "++")”. The “Mite Mortality Rate 24 h” value (24 h after drug addition) is on record as “+++ (a mite mortality rate greater than or equal to 90% is denoted as "+++")”.

On to `Cc1cc(C2=NOC(c3cc(Cl)c(F)c(Cl)c3)(C(F)(F)F)C2)ccc1C(=O)NCC(=O)NC1(C(F)(F)F)CC1` (stereo not drawn) [Example 001, 4-(5-(3,5-dichloro-4-fluorophenyl)-5-(trifluoromethyl)-4,5-dihydroisoxazol-3-yl)-2-methyl-N-(2-oxo-2-((1-(trifluoromethyl)cyclopropyl)amino)ethyl)benzamide], for which the mortality at 30 µM was less than 50% under setting [1] and greater than 90% under setting [2].

For `Cc1cc(C2=NOC(c3cc(Cl)cc(Cl)c3)(C(F)(F)F)C2)ccc1C(=O)NCC(=O)NC1(C(F)(F)F)COC1` (stereo not drawn) [Example 002, 4-(5-(3,5-dichlorophenyl)-5-(trifluoromethyl)-4,5-dihydroisoxazol-3-yl)-2-methyl-N-(2-oxo-2-((3-(trifluoromethyl)oxetan-3-yl)amino)ethyl)benzamide], the mortality at 30 µM by setting is: under setting [1], less than 50%; under setting [2], greater than 90%.

Regarding `Cc1cc(C2=NOC(c3cc(Cl)c(Cl)c(Cl)c3)(C(F)(F)F)C2)ccc1C(=O)NCC(=O)N1CC(F)(CF)C1` (stereo not drawn) [Example 003, N-(2-(3-fluoro-3-(fluoromethyl)azetidin-1-yl)-2-oxoethyl)-2-methyl-4-(5-(3,4,5-trichlorophenyl) -5-(trifluoromethyl)-4,5-dihydroisoxazol-3-yl)benzamide], the mortality at 30 µM by setting is: under setting [1], less than 50%; under setting [2], greater than 90%.

As for `Cc1cc(C2=NOC(c3cc(Cl)c(Cl)c(Cl)c3)(C(F)(F)F)C2)ccc1C(=O)NCC(=O)NC1(C(F)(F)F)CC1` (stereo not drawn) [Example 004, 2-methyl-N-(2-oxo-2-((1-(trifluoromethyl)cyclopropyl)amino)ethyl)-4-(5-(3,4,5-trichlorophenyl) -5-(trifluoromethyl)-4,5-dihydroisoxazol-3-yl)benzamide], the mortality at 30 µM under setting [1] was less than 50% and the mortality at 30 µM under setting [2] was greater than 90%.

For the compound `Cc1cc(C2=NOC(c3cc(Cl)c(F)c(Cl)c3)(C(F)(F)F)C2)ccc1C(=O)NCC(=O)N1CC(F)(CF)C1` (stereo not drawn) [Example 005, 4-(5-(3,5-dichloro-4-fluorophenyl)-5-(trifluoromethyl)-4,5-dihydroisoxazol-3-yl)-N-(2-(3-fluoro-3-(fluoromethyl)azetidin-1-yl)-2-oxoethyl)-2-methylbenzamide], the mortality at 30 µM under setting [1] lay in the range of 50 to 90% and the mortality at 30 µM under setting [2] is greater than 90%.

For the compound `Cc1cc(C2=NOC(c3cc(Cl)cc(Cl)c3)(C(F)(F)F)C2)ccc1C(=O)NCC(=O)N1CCC1C(F)(F)F` (stereo not drawn) [Example 006, 4-(5-(3,5-dichlorophenyl)-5-(trifluoromethyl)-4,5-dihydroisoxazol-3-yl)-2-methyl-N-(2-oxo-2-(2-(trifluoromethyl)azetidin-1-yl)ethyl)benzamide], the mortality at 30 µM reads like this: under setting [1], less than 50%; under setting [2], greater than 90%.

Turning to `Cc1cc(C2=NO[C@](c3cc(Cl)cc(C(F)(F)F)c3)(C(F)(F)F)C2)ccc1C(=O)NCC(=O)NC1(C(F)(F)F)CC1` [Example 009, (R)-4-(5-(3-chloro-5-(trifluoromethyl)phenyl)-5-(trifluoromethyl)-4,5-dihydroisoxazol-3-yl)-2-m ethyl-N-(2-oxo-2-((1-(trifluoromethyl)cyclopropyl)amino)ethyl)benzamide], the mortality at 30 µM runs as follows: under setting [1], less than 50%; under setting [2], less than 50%.

For `Cc1cc(C2=NOC(c3cc(Cl)cc(Cl)c3)(C(F)(F)F)C2)ccc1C(=O)NCC(=O)NC1(C(F)(F)F)CC1` (stereo not drawn) [Example 010, 4-(5-(3,5-dichlorophenyl)-5-(trifluoromethyl)-4,5-dihydroisoxazol-3-yl)-2-methyl-N-(2-oxo-2-((1-(trifluoromethyl)cyclopropyl)amino)ethyl)benzamide], the mortality at 30 µM by setting is: under setting [1], 50 to 90%; under setting [2], greater than 90%.

With `Cc1cc(C2=NO[C@](c3cc(Cl)cc(Cl)c3)(C(F)(F)F)C2)ccc1C(=O)NCC(=O)NC1(C(F)(F)F)CC1` [Example 012, (R)-4-(5-(3,5-dichlorophenyl)-5-(trifluoromethyl)-4,5-dihydroisoxazol-3-yl)-2-methyl-N-(2-oxo-2-((1-(trifluoromethyl)cyclopropyl)amino)ethyl)benzamide], the mortality at 30 µM is, setting by setting: under setting [1], less than 50%; under setting [2], less than 50%.

As to `Cc1cc(C2=NOC(c3cc(Cl)cc(C(F)(F)F)c3)(C(F)(F)F)C2)ccc1C(=O)NCC(=O)N1CC(F)(CF)C1` (stereo not drawn) [Example 013, 4-(5-(3-chloro-5-(trifluoromethyl)phenyl)-5-(trifluoromethyl)-4,5-dihydroisoxazol-3-yl)-N-(2-(3-fluoro-3-(fluoromethyl)azetidin-1-yl)-2-oxoethyl)-2-methylbenzamide], the mortality at 30 µM was greater than 90% under setting [1] and greater than 90% under setting [2].

For the compound `Cc1cc(C2=NOC(c3cc(Cl)cc(Cl)c3)(C(F)(F)F)C2)ccc1C(=O)NCC(=O)N1CC(O)(C(F)(F)F)C1` (stereo not drawn) [Example 014, 4-(5-(3,5-dichlorophenyl)-5-(trifluoromethyl)-4,5-dihydroisoxazol-3-yl)-N-(2-(3-hydroxy-3-(trifluoromethyl)azetidin-1-yl)-2-oxoethyl)-2-methylbenzamide], the mortality at 30 µM reads like this: under setting [1], less than 50%; under setting [2], less than 50%.

For `Cc1cc(C2=NOC(c3cc(Cl)cc(Cl)c3)(C(F)(F)F)C2)ccc1C(=O)NCC1(NCC(F)(F)F)COC1` (stereo not drawn) [Example 015], the “Mite Mortality Rate 4 h” value (4 h after drug addition) was “+ (a mite mortality rate less than 50% is denoted as "+")”. Besides, the “Mite Mortality Rate 24 h” value (24 h after drug addition) is given as “+ (a mite mortality rate less than 50% is denoted as "+")”.

Take `Cc1cc(C2=NOC(c3cc(Cl)cc(Cl)c3)(C(F)(F)F)C2)ccc1C(=O)NCC(=O)N1CCCC1C(F)(F)F` (stereo not drawn) [Example 016, 4-(5-(3,5-dichlorophenyl)-5-(trifluoromethyl)-4,5-dihydroisoxazol-3-yl)-2-methyl-N-(2-oxo-2-(2-(trifluoromethyl)pyrrolidin-1-yl)ethyl)benzamide]: the mortality at 30 µM reads like this: under setting [1], less than 50%; under setting [2], less than 50%.

With `Cc1cc(C2=NOC(c3cc(Cl)cc(Cl)c3)(C(F)(F)F)C2)ccc1C(=O)NCC1(NCC(F)(F)F)CC1` (stereo not drawn) [Example 017], for the setting “4 h after drug addition”, the “Mite Mortality Rate 4 h” value is on record as “+ (a mite mortality rate less than 50% is denoted as "+")”. Further, the “Mite Mortality Rate 24 h” value (24 h after drug addition) is “++ (a mite mortality rate less than 90% and greater than or equal to 50% is denoted as "++")”.

In the case of `Cc1cc(C2=NOC(c3cc(Cl)cc(Cl)c3)(C(F)(F)F)C2)ccc1C(=O)NCC(=O)NCC1(C(F)(F)F)CC1` (stereo not drawn) [Example 018], for the setting “4 h after drug addition”, the “Mite Mortality Rate 4 h” value is reported as “+ (a mite mortality rate less than 50% is denoted as "+")”. The “Mite Mortality Rate 24 h” value (24 h after drug addition) was “++ (a mite mortality rate less than 90% and greater than or equal to 50% is denoted as "++")”.

As to `Cc1cc(C2=NOC(c3cc(Cl)cc(Cl)c3F)(C(F)(F)F)C2)ccc1C(=O)NCC(=O)NC1(C(F)(F)F)CC1` (stereo not drawn) [Example 019, 4-(5-(3,5-dichloro-2-fluorophenyl)-5-(trifluoromethyl)-4,5-dihydroisoxazol-3-yl)-2-methyl-N-(2-oxo-2-((1-(trifluoromethyl)cyclopropyl)amino)ethyl)benzamide], the mortality at 30 µM runs as follows: under setting [1], 50 to 90%; under setting [2], greater than 90%.

With `Cc1cc(C2=NOC(c3cc(Cl)cc(Cl)c3Cl)(C(F)(F)F)C2)ccc1C(=O)NCC(=O)NC1(C(F)(F)F)CC1` (stereo not drawn) [Example 020, 2-methyl-N-(2-oxo-2-((1-(trifluoromethyl)cyclopropyl)amino)ethyl)-4-(5-(2,3,5-trichlorophenyl) -5-(trifluoromethyl)-4,5-dihydroisoxazol-3-yl)benzamide], the mortality at 30 µM under setting [1] is less than 50% and the mortality at 30 µM under setting [2] fell in the range of 50 to 90%.

`Cc1cc(C2=NOC(c3cc(Cl)cc(Cl)c3)(C(F)(F)F)C2)ccc1C(=O)NCC(=O)N1CC(F)(C#N)C1` (stereo not drawn) [Example 021, N-(2-(3-cyano-3-fluoroazetidin-1-yl)-2-oxoethyl)-4-(5-(3,5-dichlorophenyl)-5-(trifluoromethyl)-4,5-dihydroisoxazol-3-yl)-2-methylbenzamide]: the mortality at 30 µM is less than 50% under setting [1] and less than 50% under setting [2].

For `Cc1cc(C2=NOC(c3cc(Cl)cc(Cl)c3)(C(F)(F)F)C2)ccc1C(=O)NCC(=O)N1CC(F)(F)C1` (stereo not drawn) [Example 022, 4-(5-(3,5-dichlorophenyl)-5-(trifluoromethyl)-4,5-dihydroisoxazol-3-yl)-N-(2-(3,3-difluoroazetidin-1-yl)-2-oxoethyl)-2-methylbenzamide], the mortality at 30 µM is, setting by setting: under setting [1], less than 50%; under setting [2], 50 to 90%.

For the compound `Cc1cc(C2=NOC(c3cc(Cl)cc(Cl)c3)(C(F)(F)F)C2)ccc1C(=O)NCC(=O)N1CC(C(F)(F)F)C1` (stereo not drawn) [Example 023, 4-(5-(3,5-dichlorophenyl)-5-(trifluoromethyl)-4,5-dihydroisoxazol-3-yl)-2-methyl-N-(2-oxo-2-(3-(trifluoromethyl)azetidin-1-yl)ethyl)benzamide], the mortality at 30 µM under setting [1] was less than 50% and the mortality at 30 µM under setting [2] lay in the range of 50 to 90%.
